This is an account of results in patent US20260306527A1, “PRMT INHIBITOR COMPOUNDS AND THE USES THEREOF” (Purdue Research Foundation, priority 2023, published 2026).

A word on the inhibition: it is the change of the read-out against control, counted positive when it falls.

Holding throughout (format): biochemical
One assay addresses T1, PRMT1 (Homo sapiens, UniProt Q99873).
T1 construct: made in house
The assay can be described thus: SAHH-coupled fluorescence assay, inhibition of PRMT1. The protocol:
(§1) A fluorescence-based SAHH-coupled assay was applied to study the inhibition activity of all synthesized compounds on PRMT 1 and 3.
(§2) The PRMT1 methylation assay was performed under the following conditions in a final well volume of 100 μL: 2.5 mM HEPES (pH=7.0), 25 mM NaCl, 25 μM EDTA, 50 μM TCEP, 0.01% Triton X-100, 5 μM SAHH, 0.1 μM PRMT1, 10 μM AdoMet, and 10 μM ThioGlo4. […] The fluorescence signal was monitored on a BMG CLARIOstar microplate reader with excitation at 400 nm and emission at 465 nm for 15 min. Data were processed using GraphPad Prism software 8.0.
(§3) Next, the inhibition activity of the library was investigated for five PRMT members from type I PRMTs.
as §2, with “A fluorescence-based SAHH-coupled assay was applied to determine the inhibition activity of all synthesized compounds on PRMT 1 and 3. The PRMT1” for “The PRMT1”, “software 8.0. All experiments were performed in duplicate.” for “software 8.0.”

In the next assay the target is T2, PRMT4 (Homo sapiens, UniProt Q86X55).
T2 sequence (Q86X55 1-608): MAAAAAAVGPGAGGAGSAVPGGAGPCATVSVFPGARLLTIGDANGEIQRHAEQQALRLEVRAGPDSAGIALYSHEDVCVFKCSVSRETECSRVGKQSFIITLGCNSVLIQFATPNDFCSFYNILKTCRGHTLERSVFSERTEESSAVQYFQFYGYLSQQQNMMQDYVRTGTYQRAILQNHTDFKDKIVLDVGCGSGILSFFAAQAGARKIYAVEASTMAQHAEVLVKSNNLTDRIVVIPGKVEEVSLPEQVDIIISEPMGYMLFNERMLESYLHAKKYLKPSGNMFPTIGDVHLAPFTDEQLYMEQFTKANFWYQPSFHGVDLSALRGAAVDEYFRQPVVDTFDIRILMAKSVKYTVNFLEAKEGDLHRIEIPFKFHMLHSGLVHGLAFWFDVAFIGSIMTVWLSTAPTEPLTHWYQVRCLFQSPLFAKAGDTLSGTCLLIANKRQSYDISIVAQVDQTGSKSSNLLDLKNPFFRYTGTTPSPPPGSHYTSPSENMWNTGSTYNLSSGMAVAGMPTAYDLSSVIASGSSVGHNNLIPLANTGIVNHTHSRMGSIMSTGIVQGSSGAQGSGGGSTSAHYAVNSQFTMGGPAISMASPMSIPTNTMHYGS
The assay can be described thus: radioactive assay (Reaction Biology Corp.), inhibition of PRMT4. The protocol:
as §3
(§4) The PRMT 4, 6 and 8 methylation assays were performed by Reaction Biology corp.

In the next assay the target is PRMT3 (Homo sapiens, UniProt O60678). The assay is described as follows: SAHH-coupled fluorescence assay, inhibition of PRMT3. More on the design: PRMT3 (residues 211-531) was cloned into the pET28a-MHL expression vector; tag of the pET28a-MHL vector (not described); made in house; host or cells: Escherichia coli BL21(DE3). As for the experimental part: as §1
Chain of PRMT3 (O60678 211-531): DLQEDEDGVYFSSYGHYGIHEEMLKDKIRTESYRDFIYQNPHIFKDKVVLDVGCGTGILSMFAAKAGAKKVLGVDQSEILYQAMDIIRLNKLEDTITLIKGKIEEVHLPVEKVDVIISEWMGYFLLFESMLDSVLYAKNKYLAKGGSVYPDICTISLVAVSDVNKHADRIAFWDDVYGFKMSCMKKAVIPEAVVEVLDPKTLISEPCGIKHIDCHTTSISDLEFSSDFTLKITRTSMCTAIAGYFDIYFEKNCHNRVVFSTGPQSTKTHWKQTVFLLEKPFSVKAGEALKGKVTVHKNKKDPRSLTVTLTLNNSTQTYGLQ
The PRMT3 methylation assay was performed under the following conditions in a final well volume of 100 μL: 20 mM Tris (pH=7.5), 0.01% Triton X-100, 5 μM SAHH, 0.25 μM PRMT3, 30 μM AdoMet, and 15 μM ThioGlo4. […] Fluorescence was monitored on a BMG CLARIOstar microplate reader with excitation 380 nm and emission 505 nm. Data were processed by using GraphPad Prism software 8.0. All experiments were performed in duplicate.
as §3
The PRMT3 methylation assay was performed under the following conditions in a final well volume of 100 μL: 20 mM Tris (pH=7.5), 0.01% Triton X-100, 5 μM SAHH, 0.25 μM PRMT3, 30 μM AdoMet, and 15 μM ThioGlo4. […] Fluorescence was monitored on a BMG CLARIOstar microplate reader with excitation 380 nm and emission 505 nm. Data were processed by using GraphPad Prism software 8.0.

For another assay, the target named is PRMT6 (Homo sapiens, UniProt Q96LA8). The assay can be described thus: radioactive assay (Reaction Biology Corp.), inhibition of PRMT6. Particulars: for PRMT6 inhibition: 10 μM. As for the experimental part:
as §3, §4

The target of a further assay is PRMT8 (Homo sapiens, UniProt Q9NR22). The assay can be described thus: radioactive assay (Reaction Biology Corp.), inhibition of PRMT8. The protocol: as §3, §4
Chain of PRMT8 (Q9NR22 whole entry, species assumed): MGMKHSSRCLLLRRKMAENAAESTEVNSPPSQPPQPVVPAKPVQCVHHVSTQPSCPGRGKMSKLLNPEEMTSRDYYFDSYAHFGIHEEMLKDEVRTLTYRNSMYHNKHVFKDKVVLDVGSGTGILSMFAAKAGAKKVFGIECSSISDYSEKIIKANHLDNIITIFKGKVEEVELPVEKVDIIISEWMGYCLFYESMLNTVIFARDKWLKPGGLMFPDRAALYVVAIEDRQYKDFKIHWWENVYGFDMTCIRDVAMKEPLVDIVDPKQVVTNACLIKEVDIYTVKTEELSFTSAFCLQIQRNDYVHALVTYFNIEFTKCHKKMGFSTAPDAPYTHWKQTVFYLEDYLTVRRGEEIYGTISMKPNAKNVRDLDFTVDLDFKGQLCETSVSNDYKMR

Chain of PRMT6 (Q96LA8 whole entry, species assumed): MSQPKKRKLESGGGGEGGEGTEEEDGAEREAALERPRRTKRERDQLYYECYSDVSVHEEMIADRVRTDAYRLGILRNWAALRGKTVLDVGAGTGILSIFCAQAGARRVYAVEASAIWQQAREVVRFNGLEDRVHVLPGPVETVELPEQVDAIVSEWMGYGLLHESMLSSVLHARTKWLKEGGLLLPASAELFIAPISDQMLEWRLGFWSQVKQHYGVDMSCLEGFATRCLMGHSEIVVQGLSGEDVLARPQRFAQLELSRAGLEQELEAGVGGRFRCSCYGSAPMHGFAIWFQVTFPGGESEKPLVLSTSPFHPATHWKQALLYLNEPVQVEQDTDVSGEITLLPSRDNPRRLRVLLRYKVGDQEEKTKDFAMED
T1 sequence (Q99873 whole entry, species assumed): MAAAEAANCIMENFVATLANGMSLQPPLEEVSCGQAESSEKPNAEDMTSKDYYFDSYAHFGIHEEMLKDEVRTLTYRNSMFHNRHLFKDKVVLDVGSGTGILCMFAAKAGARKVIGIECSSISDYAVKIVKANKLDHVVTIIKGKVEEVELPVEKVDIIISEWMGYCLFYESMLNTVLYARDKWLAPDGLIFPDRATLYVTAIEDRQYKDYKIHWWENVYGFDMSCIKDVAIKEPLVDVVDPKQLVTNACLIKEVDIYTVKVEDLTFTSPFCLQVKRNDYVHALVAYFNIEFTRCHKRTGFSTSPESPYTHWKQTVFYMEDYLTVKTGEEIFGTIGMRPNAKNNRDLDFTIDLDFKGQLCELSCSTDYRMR

Regarding `Nc1cccc(-c2cccc(CNCCSC[C@H]3O[C@@H](n4cnc5c(N)ncnc54)[C@H](O)[C@@H]3O)c2)c1` [Compound 10l], the inhibition at 10 µM at PRMT1 came out at 7%; on PRMT4, 100%; on PRMT3, 8%; on PRMT6 it was 53%; at PRMT8, 62%.

With `Nc1ncnc2c1ncn2[C@@H]1O[C@H](CSCCCNCc2cccc(-c3ccc(O)cc3)c2)[C@@H](O)[C@H]1O` [Compound 10n], the inhibition at 10 µM at PRMT1 is 57%; on PRMT4, 96%; at PRMT3 it was 21%; on PRMT6, 36%; at PRMT8, 69%.

On to `Nc1ncnc2c1ncn2[C@@H]1O[C@H](CSCCCNCc2cccc(-c3ccc(C(F)(F)F)cc3)c2)[C@@H](O)[C@H]1O` [Compound 10o], for which the inhibition at 10 µM was found to be 71% against PRMT1; 97% at PRMT4; 24% against PRMT3; 37% at PRMT6; 65% on PRMT8.

As for `Nc1ncnc2c1ncn2[C@@H]1O[C@H](CSCCCNCc2cccc(-c3ccoc3)c2)[C@@H](O)[C@H]1O` [Compound 10p], the inhibition at 10 µM came to 54% against PRMT1; 99% on PRMT4; 25% on PRMT3; 66% at PRMT6; 54% on PRMT8.

On to `Nc1ncnc2c1ncn2[C@@H]1O[C@H](CSCCCNCc2cccc(-c3cccc(F)c3)c2)[C@@H](O)[C@H]1O` [Compound 10q], for which the inhibition at 10 µM amounted to 63% on PRMT1; 97% at PRMT4; 25% against PRMT3; 36% on PRMT6; 66% on PRMT8.

With `Nc1ncnc2c1ncn2[C@@H]1O[C@H](CSCCCNCc2cccc(-c3ccc(F)c(O)c3)c2)[C@@H](O)[C@H]1O` [Compound 10r], the inhibition at 10 µM against PRMT1 came to 52%; on PRMT4 it was 95%; against PRMT3, 22%; at PRMT6, 74%; at PRMT8, 72%.

In the case of `Nc1ncnc2c1ncn2[C@@H]1O[C@H](CSCCCNCc2cccc(-c3cccc4cn[nH]c34)c2)[C@@H](O)[C@H]1O` [Compound 10t], the inhibition at 10 µM against PRMT1 amounted to 69%; on PRMT4 it was 99%; on PRMT3, 22%; at PRMT6, 87%; on PRMT8, 72%.

As for `COc1cc2nc(-c3ccc(Cl)cc3)nc(NCCSC[C@H]3O[C@@H](n4cnc5c(N)ncnc54)[C@H](O)[C@@H]3O)c2cc1OC` [Compound 12a], the inhibition at 10 µM against PRMT1 came out at 1%; on PRMT4, 69%; at PRMT3, 4%; on PRMT6, 85%; on PRMT8 it was 23%. Moreover, at PRMT6, the “PRMT6 inhibition” value is “selective inhibition to PRMT6”.

With `COc1cc2nc(-c3ccc(O)cc3)nc(NCCSC[C@H]3O[C@@H](n4cnc5c(N)ncnc54)[C@H](O)[C@@H]3O)c2cc1OC` [Compound 12b], the inhibition at 10 µM at PRMT1 was 2%; on PRMT4, -4%; against PRMT3, 13%; on PRMT6, 91%; at PRMT8 it was 22%. Further, the “PRMT6 inhibition” value on PRMT6 is “selective inhibition to PRMT6”.

Consider `COc1cc2nc(-c3cccc(F)c3)nc(NCCSC[C@H]3O[C@@H](n4cnc5c(N)ncnc54)[C@H](O)[C@@H]3O)c2cc1OC` [Compound 12c], for which the inhibition at 10 µM came to 15% against PRMT1; 62% on PRMT4; 15% at PRMT3; 43% at PRMT6; 35% at PRMT8.

With `COc1cc2nc(-c3ccoc3)nc(NCCSC[C@H]3O[C@@H](n4cnc5c(N)ncnc54)[C@H](O)[C@@H]3O)c2cc1OC` [Compound 12d], the inhibition at 10 µM against PRMT1 turned out to be 2%; on PRMT4, 1%; at PRMT3, 10%; at PRMT6, 16%; at PRMT8 it was 25%.

For the molecule `COc1cc2nc(-c3ccc(C(F)(F)F)cc3)nc(NCCSC[C@H]3O[C@@H](n4cnc5c(N)ncnc54)[C@H](O)[C@@H]3O)c2cc1OC` [Compound 12e], the inhibition at 10 µM was 3% at PRMT1; 43% on PRMT4; 5% against PRMT3; 19% on PRMT6; 37% at PRMT8.

For `COc1cc2nc(-c3ccc(F)c(O)c3)nc(NCCSC[C@H]3O[C@@H](n4cnc5c(N)ncnc54)[C@H](O)[C@@H]3O)c2cc1OC` [Compound 12f], the inhibition at 10 µM against PRMT1 came out at 12%; on PRMT4, 51%; at PRMT3 it was 9%; at PRMT6, 16%; at PRMT8, 21%.

For `COc1cc2nc(-c3cccc(O)c3)nc(NCCSC[C@H]3O[C@@H](n4cnc5c(N)ncnc54)[C@H](O)[C@@H]3O)c2cc1OC` [Compound 12g], the inhibition at 10 µM was 2% on PRMT1; 10% on PRMT4; 4% at PRMT3; 13% on PRMT6; 25% at PRMT8.

As for `COc1cc2nc(-c3ccccc3O)nc(NCCSC[C@H]3O[C@@H](n4cnc5c(N)ncnc54)[C@H](O)[C@@H]3O)c2cc1OC` [Compound 12h], the inhibition at 10 µM against PRMT1 came to 1%; on PRMT4 it was 36%; at PRMT3 it was 12%; on PRMT6 it was 16%; on PRMT8 it was 18%.

In the case of `COc1cc2nc(-c3ccc(N)cc3)nc(NCCSC[C@H]3O[C@@H](n4cnc5c(N)ncnc54)[C@H](O)[C@@H]3O)c2cc1OC` [Compound 12j], the inhibition at 10 µM is 12% against PRMT1; 1% on PRMT4; 13% on PRMT3; 8% on PRMT6; 21% on PRMT8.

`Nc1ncnc2c1ncn2[C@@H]1O[C@H](CSCCOc2ccc(-c3ccc(Cl)cc3)cc2)[C@@H](O)[C@H]1O` [Compound 14a]: the inhibition at 10 µM was 2% on PRMT1; 47% at PRMT4; 9% against PRMT3; -4% at PRMT6; 38% on PRMT8.

In the case of `Nc1ncnc2c1ncn2[C@@H]1O[C@H](CSCCOc2ccc(-c3ccc(O)cc3)cc2)[C@@H](O)[C@H]1O` [Compound 14b], the inhibition at 10 µM stood at 8% against PRMT1; 13% at PRMT4; 6% against PRMT3; 20% on PRMT6; 20% on PRMT8.
